“And” between values parts separate entries of the source, which are not always exact repeats. Equal values may be shown once. Inconclusive results and toxic doses are left out.
System: P388 leukemia ip, CD2F1 mice, survival T/C
Assay: NCI In Vivo Anticancer Drug Screen. Data for tumor model P388 Leukemia (intraperitoneal) in CD2F1 (CDF1) mice
Conditions: endpoint: median survival time, higher = longer survival
Summary of the method: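 Mice carrying the transplanted tumor received test compound or vehicle. Survival was recorded in each group, and the value is the treated-group measurement divided by that of the vehicle-treated control group.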

[1] = dose: 6.25 mg/kg/injection, schedule: Q01DX009 (ip), vehicle: saline with Tween-80
[2] = dose: 12.5 mg/kg/injection, schedule: Q01DX009 (ip), vehicle: saline with Tween-80
[3] = dose: 12.5 mg/kg/injection, schedule: Q04DX003 (ip), vehicle: saline
[4] = dose: 50.0 mg/kg/injection, schedule: Q01DX009 (ip), vehicle: Klucel (hydroxypropylcellulose) (HPC)
[5] = dose: 100.0 mg/kg/injection, schedule: Q01DX009 (ip), vehicle: Klucel (hydroxypropylcellulose) (HPC)
[6] = dose: 200.0 mg/kg/injection, schedule: Q01DX009 (ip), vehicle: Klucel (hydroxypropylcellulose) (HPC)
[7] = dose: 50.0 mg/kg/injection, schedule: Q01DX005 (ip), vehicle: saline with Tween-80
[8] = dose: 100.0 mg/kg/injection, schedule: Q01DX005 (ip), vehicle: saline with Tween-80
[9] = dose: 200.0 mg/kg/injection, schedule: Q01DX005 (ip), vehicle: saline with Tween-80
[10] = dose: 50.0 mg/kg/injection, schedule: Q01DX009 (ip), vehicle: saline
[11] = dose: 100.0 mg/kg/injection, schedule: Q01DX009 (ip), vehicle: saline
[12] = dose: 200.0 mg/kg/injection, schedule: Q01DX009 (ip), vehicle: saline

Cc1cc2ccccc2c[n+]1C
T/C (dose: 1.56 mg/kg/injection, schedule: Q01DX009 (ip), vehicle: saline with Tween-80): 105 % of control
T/C (dose: 3.12 mg/kg/injection, schedule: Q01DX009 (ip), vehicle: saline with Tween-80): 102 % of control
T/C [1]: 96 % of control
T/C [2]: 105 % of control
T/C [3]: 100 % of control
T/C (dose: 25.0 mg/kg/injection, schedule: Q04DX003 (ip), vehicle: saline): 100 % of control
T/C (dose: 50.0 mg/kg/injection, schedule: Q04DX003 (ip), vehicle: saline): 100 % of control

Cn1c(N2CCN(CCO)CC2)nc2c1c(=O)n(CC(O)CN1CCN(CCO)CC1)c(=O)n2C (stereo not drawn)
T/C [4]: 89 % of control
T/C [5]: 97 % of control
T/C [6]: 107 % of control

CCCCCCCCCCC1OCN2CCCCC12 (stereo not drawn)
T/C (dose: 50.0 mg/kg/injection, schedule: Q01DX005 (ip), vehicle: saline): 108 % of control
T/C (dose: 100.0 mg/kg/injection, schedule: Q01DX005 (ip), vehicle: saline): 104 % of control
T/C (dose: 200.0 mg/kg/injection, schedule: Q01DX005 (ip), vehicle: saline): 118 % of control

CC1C(=O)OC(C(Cl)(Cl)Cl)N1C (stereo not drawn)
T/C (dose: 60.0 mg/kg/injection, schedule: Q01DX005 (ip), vehicle: saline with Tween-80): 97 % of control
T/C (dose: 120.0 mg/kg/injection, schedule: Q01DX005 (ip), vehicle: saline with Tween-80): 97 % of control
T/C (dose: 240.0 mg/kg/injection, schedule: Q01DX005 (ip), vehicle: saline with Tween-80): 94 % of control

O=C1OC(Cc2ccccc2)=C(Cl)C(Cl)(Cc2ccccc2)C1Cl (stereo not drawn)
T/C (dose: 100.0 mg/kg/injection, schedule: Q01DX001 (ip), vehicle: Klucel (hydroxypropylcellulose) (HPC)): 100 % of control
T/C (dose: 200.0 mg/kg/injection, schedule: Q01DX001 (ip), vehicle: Klucel (hydroxypropylcellulose) (HPC)): 108 % of control

CCOC(=O)C1=NN(c2ccccc2)C(=O)C1c1ccccc1 (stereo not drawn)
T/C (dose: 50.0 mg/kg/injection, schedule: Q01DX009 (ip), vehicle: saline with Tween-80): 90 % of control
T/C (dose: 100.0 mg/kg/injection, schedule: Q01DX009 (ip), vehicle: saline with Tween-80): 93 % of control
T/C (dose: 200.0 mg/kg/injection, schedule: Q01DX009 (ip), vehicle: saline with Tween-80): 107 % of control

O=S1(=O)NC(=NC2CCCC2)c2ccccc21
T/C [7]: 111 % of control
T/C [8]: 102 % of control
T/C [9]: 101 % of control

[N-]=[N+]=[N-]
T/C (dose: 3.0 mg/kg/injection, schedule: Q01DX009 (ip), vehicle: saline with Tween-80): 100 % of control
T/C (dose: 6.0 mg/kg/injection, schedule: Q01DX009 (ip), vehicle: saline with Tween-80): 105 % of control

CCN(CC)CCOCCO
T/C [10]: 100 % of control
T/C [11]: 109 % of control
T/C [12]: 100 % of control

COc1ccc(C2OC(N)=C(O)C2=O)cc1OC (stereo not drawn)
T/C (dose: 60.0 mg/kg/injection, schedule: Q01DX005 (ip), vehicle: Klucel (hydroxypropylcellulose) (HPC)): 100 % of control
T/C (dose: 120.0 mg/kg/injection, schedule: Q01DX005 (ip), vehicle: Klucel (hydroxypropylcellulose) (HPC)): 91 % of control
T/C (dose: 240.0 mg/kg/injection, schedule: Q01DX005 (ip), vehicle: Klucel (hydroxypropylcellulose) (HPC)): 95 % of control

CC12CC(CC1=O)CC2S(=O)(=O)O (stereo not drawn)
T/C (dose: 100.0 mg/kg/injection, schedule: Q01DX001 (ip), vehicle: saline with Tween-80): 96 % of control
T/C (dose: 200.0 mg/kg/injection, schedule: Q01DX001 (ip), vehicle: saline with Tween-80): 102 % of control

C=C1C2(CN)CCC(C2)C1(C)C (stereo not drawn)
T/C [1]: 101 % of control
T/C (dose: 12.5 mg/kg/injection, schedule: Q01DX001 (ip), vehicle: saline with Tween-80): 96 % of control
T/C [2]: 98 % of control
T/C (dose: 25.0 mg/kg/injection, schedule: Q01DX001 (ip), vehicle: saline with Tween-80): 101 % of control
T/C (dose: 25.0 mg/kg/injection, schedule: Q01DX009 (ip), vehicle: saline with Tween-80): 98 % of control
T/C (dose: 50.0 mg/kg/injection, schedule: Q01DX001 (ip), vehicle: saline with Tween-80): 99 % of control

Cc1cc(O)c([N+](=O)[O-])c(O)c1
T/C [10]: 96 % of control
T/C [11]: 103 % of control
T/C [12]: 100 % of control

Nc1nc(-c2ccccc2N=NN2CCCCC2)nc2ccccc12
T/C (dose: 12.5 mg/kg/injection, schedule: Q01DX009 (ip), vehicle: Klucel (hydroxypropylcellulose) (HPC)): 111 % of control
T/C (dose: 25.0 mg/kg/injection, schedule: Q01DX009 (ip), vehicle: Klucel (hydroxypropylcellulose) (HPC)): 102 % of control
T/C [4]: 104 % of control
T/C [5]: 110 % of control and 113 % of control

Nc1nc2c(nnn2C2OC(CO)C(O)C2O)c(=O)[nH]1 (stereo not drawn)
T/C [7]: 113 % of control
T/C [8]: 101 % of control

O=S(=O)(O)O.[Cu+2].[NH-]CCC[N-]CCCC[N-]CCC[NH-]
T/C (dose: 6.25 mg/kg/injection, schedule: Q01DX001 (ip), vehicle: saline): 108 % of control
T/C (dose: 12.5 mg/kg/injection, schedule: Q01DX001 (ip), vehicle: saline): 113 % of control and 92 % of control
T/C (dose: 25.0 mg/kg/injection, schedule: Q01DX001 (ip), vehicle: saline): 113 % of control
T/C (dose: 50.0 mg/kg/injection, schedule: Q01DX001 (ip), vehicle: saline): 106 % of control

O=C(Nc1ccccc1)c1c(O)[nH]c(=O)[nH]c1=O
T/C [8]: 163 % of control and 207 % of control
T/C [9]: 204 % of control

COSc1ccc(OC)cc1
T/C (dose: 100.0 mg/kg/injection, schedule: Q04DX003 (ip), vehicle: saline): 102 % of control
T/C (dose: 200.0 mg/kg/injection, schedule: Q04DX003 (ip), vehicle: saline): 97 % of control

CC(C)=CCC/C(C)=C/CC/C(C)=C/CC/C(C)=C/CC/C(C)=C/CC/C(C)=C/CC/C(C)=C/CC/C(C)=C/CC/C(C)=C/CO
T/C (dose: 6.25 mg/kg/injection, schedule: Q01DX009 (ip), vehicle: saline + alcohol): 98 % of control
T/C (dose: 12.5 mg/kg/injection, schedule: Q01DX009 (ip), vehicle: saline + alcohol): 96 % of control
T/C (dose: 25.0 mg/kg/injection, schedule: Q01DX009 (ip), vehicle: saline + alcohol): 99 % of control
T/C (dose: 50.0 mg/kg/injection, schedule: Q01DX009 (ip), vehicle: saline + alcohol): 107 % of control
T/C (dose: 100.0 mg/kg/injection, schedule: Q01DX009 (ip), vehicle: saline + alcohol): 96 % of control
T/C (dose: 200.0 mg/kg/injection, schedule: Q01DX009 (ip), vehicle: saline + alcohol): 109 % of control

CN(C)C1C(=O)C(C(=O)NCN2CCCC2)=C(O)C2(O)C(=O)C3=C(O)c4c(O)cccc4C(C)(O)C3CC12 (stereo not drawn)
T/C [7]: 96 % of control
T/C [8]: 95 % of control
T/C [9]: 97 % of control

CSC1=NN(C)C2(CCCCC2)C(=O)N1
T/C [4]: 115 % of control
T/C [5]: 96 % of control
T/C [6]: 118 % of control

O=C(NO)C(O)C(O)C(O)C(O)CO (stereo not drawn)
T/C (dose: 12.5 mg/kg/injection, schedule: Q01DX009 (ip), vehicle: saline): 93 % of control
T/C (dose: 25.0 mg/kg/injection, schedule: Q01DX009 (ip), vehicle: saline): 91 % of control
T/C [10]: 98 % of control and 97 % of control
T/C [12]: 86 % of control

[Br][Sn]([Br])([CH2]c1ccccc1)[c]1ccccc1
T/C (dose: 1.56 mg/kg/injection, schedule: Q04DX003 (ip), vehicle: saline): 101 % of control and 102 % of control
T/C (dose: 3.12 mg/kg/injection, schedule: Q04DX003 (ip), vehicle: saline): 99 % of control and 102 % of control
T/C (dose: 6.25 mg/kg/injection, schedule: Q04DX003 (ip), vehicle: saline with Tween-80): 118 % of control
T/C (dose: 6.25 mg/kg/injection, schedule: Q04DX003 (ip), vehicle: saline): 105 % of control and 106 % of control
T/C [3]: 99 % of control and 104 % of control

C/C(=N\NC(=S)N1CCC(C2CCN(C(=S)N/N=C(\C)c3ccccn3)CC2)CC1)c1ccccn1
T/C [7]: 112 % of control and 97 % of control
T/C [8]: 114 % of control and 122 % of control
T/C [9]: 118 % of control
T/C (dose: 400.0 mg/kg/injection, schedule: Q01DX005 (ip), vehicle: saline with Tween-80): 120 % of control

Cc1nc2ccccc2c(=O)o1
T/C [4]: 97 % of control
T/C [5]: 98 % of control
T/C (dose: 100.0 mg/kg/injection, schedule: Q04DX002 (ip), vehicle: Klucel (hydroxypropylcellulose) (HPC)): 105 % of control
T/C [6]: 90 % of control
T/C (dose: 200.0 mg/kg/injection, schedule: Q04DX002 (ip), vehicle: Klucel (hydroxypropylcellulose) (HPC)): 107 % of control
T/C (dose: 400.0 mg/kg/injection, schedule: Q04DX002 (ip), vehicle: Klucel (hydroxypropylcellulose) (HPC)): 100 % of control
